From patent publication US7282489B2, “Compositions and methods for performing reverse gene therapy” (The Children's Hospital of Philadelphia, priority 2000, dated 2007)

How the values were obtained:
[1] = target: T1, Q9E-hMiRP1 channels (Homo sapiens, UniProt Q12809+Q9Y6J6, Q9E); conditions: patch clamp studies, Abbott et al, 1999; cited from earlier work
T1 construct: expressed in transfected cells; host or cells: HEK293 stably expressing HERG, stably co-transfected with pIRES2-EGFP-Q9E-hMiRP1-FLAG
T1 sequence (Q12809 whole entry): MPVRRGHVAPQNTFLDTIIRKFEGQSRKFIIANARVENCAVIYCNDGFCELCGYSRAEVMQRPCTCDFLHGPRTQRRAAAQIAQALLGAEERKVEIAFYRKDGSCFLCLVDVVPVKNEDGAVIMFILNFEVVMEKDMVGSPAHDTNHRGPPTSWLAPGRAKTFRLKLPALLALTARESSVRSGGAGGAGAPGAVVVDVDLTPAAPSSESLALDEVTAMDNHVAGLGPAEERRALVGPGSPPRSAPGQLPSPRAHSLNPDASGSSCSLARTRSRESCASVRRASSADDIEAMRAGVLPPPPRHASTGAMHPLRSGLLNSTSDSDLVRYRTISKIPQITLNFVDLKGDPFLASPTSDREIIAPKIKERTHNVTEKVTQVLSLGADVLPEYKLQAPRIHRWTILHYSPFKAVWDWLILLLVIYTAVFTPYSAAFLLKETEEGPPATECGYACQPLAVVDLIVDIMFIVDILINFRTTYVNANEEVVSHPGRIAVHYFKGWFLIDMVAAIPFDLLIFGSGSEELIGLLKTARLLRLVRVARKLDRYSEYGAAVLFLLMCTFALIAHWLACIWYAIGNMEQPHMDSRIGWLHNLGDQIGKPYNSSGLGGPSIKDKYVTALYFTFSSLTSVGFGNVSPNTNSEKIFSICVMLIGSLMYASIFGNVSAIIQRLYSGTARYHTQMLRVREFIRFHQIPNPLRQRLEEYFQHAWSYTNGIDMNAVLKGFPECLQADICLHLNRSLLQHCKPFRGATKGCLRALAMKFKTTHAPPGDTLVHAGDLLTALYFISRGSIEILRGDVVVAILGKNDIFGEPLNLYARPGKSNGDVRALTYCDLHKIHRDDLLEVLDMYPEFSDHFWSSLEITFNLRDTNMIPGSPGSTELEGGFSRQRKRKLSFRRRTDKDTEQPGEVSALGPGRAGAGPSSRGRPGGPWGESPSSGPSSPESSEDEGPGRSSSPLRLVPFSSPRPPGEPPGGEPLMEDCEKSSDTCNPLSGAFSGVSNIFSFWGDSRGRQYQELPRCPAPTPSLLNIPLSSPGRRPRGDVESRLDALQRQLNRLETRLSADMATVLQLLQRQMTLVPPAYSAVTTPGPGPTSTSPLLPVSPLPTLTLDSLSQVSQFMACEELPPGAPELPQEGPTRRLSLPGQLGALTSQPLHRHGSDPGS
T1 sequence (Q9Y6J6 whole entry Q9E): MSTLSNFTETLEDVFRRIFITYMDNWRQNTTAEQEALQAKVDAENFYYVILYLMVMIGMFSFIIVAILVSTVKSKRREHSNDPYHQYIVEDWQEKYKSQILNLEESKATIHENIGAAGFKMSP

[2] = target: T1, Q9E-hMiRP1 channels; experiment: Whole cell voltage clamp, HEK293 cells stably expressing HERG and Q9E-hMiRP1; type: cell-based
Description: (§1) Electrophysiology Methods: HEK293 cells that stably express HERG, but not hMiRP1 (Zhou, et al., 1999) were also stably co-transfected with either hMiRP1 or Q9E-hMiRP1 and subsequently were analyzed for channel function by single cell patch clamping using voltage clamp conditions. The data were analyzed at a sampling rate of 4 kHz and filtered at 1 kHz using Pclamp software version 6.0 (Axon Instruments, Foster City, Calif.). Leak correction was not performed, and therefore unaltered data are shown. All experiments were performed at 25° C. Protocols for steady-state activation and isochronal peak currents, and clarithromycin incubations were performed as described by Abbott et al., 1999. Initial studies were performed in buffer containing 95 mM KCl, 5 mM NaCl, 1 mM MgCl2, 0.3 mM CaCl2, and 10 mM HEPES (pH 7.6). For whole cell recordings, pipettes contained 100 mM KCl, 1 mM MgCl2, 10 mM HEPES, and 2 mM EGTA (pH 7.5). A 50 mM Clarithromycin (American Bioanalytical, Natick, Mass.) stock in DMSO was diluted in bath solution.

[3] = target: T2, Q9E-hMiRP1 channels (Homo sapiens, UniProt Q12809); experiment: as above; type: cell-based; conditions: HEK293 cells overexpressing Q9E-hMiRP1, activation at +20 mV; read-out: Dose leading to half blockade of peak outward currents
T2 construct: expressed in transfected cells; host or cells: HEK293 stably expressing HERG, stably co-transfected with pIRES2-EGFP-Q9E-hMiRP1-FLAG
T2 sequence (Q12809 whole entry): as the sequence (Q12809 whole entry) above
T2 sequence (Q9Y6J6 whole entry Q9E, further chain): as the sequence (Q9Y6J6 whole entry Q9E) above
Description: as §1

[4] = target: T3, channels formed with wild-type hMiRP1 (Homo sapiens, UniProt Q12809); experiment: Whole cell voltage clamp, HEK293 cells stably expressing HERG and wild type hMiRP1; type: cell-based; conditions: wild-type hMiRP1, activation at +20 mV, read-out: Dose causing half block of the peak outward currents
T3 construct: expressed in transfected cells; host or cells: HEK293 stably expressing HERG, stably co-transfected with pIRES2-EGFP-hMiRP1-FLAG
T3 sequence (Q12809 whole entry): as the sequence (Q12809 whole entry) above
T3 sequence (Q9Y6J6 whole entry, further chain): as the sequence (Q9Y6J6 whole entry Q9E) above, with E9Q counted along it
Description: as §1

[5] = system: re-entrant atrial flutter; experiment: Y-atriotomy model for re-entrant atrial flutter, burst atrial pacing; type: in vivo, dog; conditions: dogs systemically administered a dose of ibutilide equivalent to that provided by the polymer

SMILES | Sensitivity of Q9E-hMiRP1 channels to clarithromycin induced diminution of potassium currents relative to wild type [1] | Effect on I/I max with increased voltages ([2]; 1.0 mM clarithromycin, Q9E-hMiRP1 stable cells, groups of 4 cells) | Clarithromycin effect in Q9E-hMiRP1 cells relative to wild type hMiRP1 cells ([2]; HEK293 cells) | Effect on peak outward currents ([2]; HEK293 cells over-expressing Q9E-hMiRP1, whole cell voltage clamp) | IC50 [3] | IC50 [4] | Inhibition of inducibility of atrial flutter [5]
CC[C@H]1OC(=O)[C@H](C)[C@@H](O[C@H]2C[C@@](C)(OC)[C@@H](O)[C@H](C)O2)[C@H](C)[C@@H](O[C@@H]2O[C@H](C)C[C@H](N(C)C)[C@H]2O)[C@](C)(OC)C[C@@H](C)C(=O)[C@H](C)[C@@H](O)[C@]1(C)O [clarithromycin, Clarithromycin] | 3 fold | blocked increases in I/I max with increased voltages | many-fold greater | reduced peak outward currents | < 1000 µM | ~2000 µM | –
CCCCCCCN(CC)CCCC(O)c1ccc(NS(C)(=O)=O)cc1 (stereo not shown) [ibutilide, Ibutilide] | – | – | – | – | – | – | No significant inhibition
